Results published in the CheMixHub ionic liquid set.

Experiment: xn = mol fraction of the nth substance listed
Details: 101 kPa, x2 = 0

CCCCCCCCCCCCOS(=O)(=O)[O-].[Na+] + Cc1ncc(C[n+]2csc(CCO)c2C)c(N)n1.Cl.[Cl-] + O
electrical conductivity [S/m]
Details	288.15 K	298.15 K	308.15 K	318.15 K
x1 = 7.35e-06	0.00102	0.00389	0.00521	0.0057
x1 = 1.463e-05	0.00278	0.00675	0.0087	0.00954
x1 = 2.184e-05	0.00515	0.00896	0.012	0.0133
x1 = 2.898e-05	0.00708	0.0117	0.0152	0.017
x1 = 3.604e-05	0.00931	0.0145	0.0186	0.0208
x1 = 4.303e-05	0.0116	0.0171	0.0219	0.0244
x1 = 4.997e-05	0.0139	0.0198	0.0251	0.0279
x1 = 5.683e-05	0.0162	0.0224	0.0283	0.0313
x1 = 6.362e-05	0.0186	0.0244	0.0315	0.0347
x1 = 7.036e-05	0.0202	0.027	0.0345	0.0381
x1 = 7.703e-05	0.0225	0.0296	0.0375	0.0414
x1 = 8.364e-05	0.0247	0.0321	0.0405	0.0448
x1 = 9.018e-05	0.0269	0.0347	0.0432	0.0481
x1 = 9.658e-05	0.0286	0.0371	0.0461	0.0513
x1 = 0.0001031	0.0307	0.0395	0.0491	0.0543
x1 = 0.0001094	0.0328	0.0419	0.0517	0.0573
x1 = 0.0001157	0.035	0.0442	0.0544	0.0602
x1 = 0.000122	0.037	0.0466	0.0568	0.0632
x1 = 0.0001281	0.039	0.0488	0.0602	0.0659
x1 = 0.0001342	0.0411	0.0509	0.0625	0.0687
x1 = 0.0001404	0.0425	0.0524	0.0647	0.0711
x1 = 0.0001465	0.0432	0.0543	0.0667	0.0734
x1 = 0.0001524	0.0444	0.0559	0.0685	0.0755
x1 = 0.0001584	0.0452	0.0571	0.0701	0.0774
x1 = 0.0001641	0.0462	0.0582	0.0716	0.079
x1 = 0.0001699	0.0469	0.0592	0.0729	0.0805
x1 = 0.0001757	0.0478	0.0601	0.0742	0.0819
x1 = 0.0001814	0.0487	0.0609	0.0753	0.0832
x1 = 0.000187	0.0495	0.0617	0.0764	0.0845
x1 = 0.0001928	0.0501	0.0626	0.0775	0.0857
x1 = 0.0001982	0.0507	0.0634	0.0785	0.0868
x1 = 0.0002038	0.0513	0.0641	0.0796	0.0879
x1 = 0.0002092	0.0517	0.0648	0.0805	0.089
x1 = 0.0002147	0.0521	0.0654	0.0815	0.0902
x1 = 0.00022	0.0527	0.066	0.0824	0.0912
x1 = 0.0002254	0.0532	0.0666	0.0834	0.0924
x1 = 0.0002306	0.0537	0.0673	0.0843	0.0936
x1 = 0.0002358	0.0542	0.068	0.0852	0.0946
x1 = 0.0002411	0.0548	0.0686	0.0861	0.0956
x1 = 0.0002463	0.0554	0.0693	0.087	0.0966

c1ccsc1 + N#C[C-](C#N)C#N.OCCC[n+]1ccccc1
Details	viscosity [mPa·s]
293.15 K	0.653
298.15 K	0.615
303.15 K	0.58
308.15 K	0.545
313.15 K	0.518
318.15 K	0.491
323.15 K	0.464
328.15 K	0.441
333.15 K	0.42
338.15 K	0.4
343.15 K	0.382
348.15 K	0.364

c1ccsc1 + N#C[C-](C#N)C#N.OCC[n+]1ccccc1
Details	viscosity [mPa·s]
303.15 K	0.58
333.15 K	0.42
348.15 K	0.364
